In the experiment the target is h-GABA-A α2β2γ1 (Homo sapiens (Human), UniProt P47869+Q8N1C3). Nature of the experiment: Two-electrode voltage clamp electrophysiology in Xenopus oocytes expressing GABAA receptors. The class given is cell-based. The settings on record: for Efficacy (GABA)%: % modulation of GABA EC20 = 100*(Fold increase−1), compound at 30-fold Ki; for Fold increase h-GABA-A α2β2γ1 oocyte @ 30-fold Ki: GABA EC20, test compound at about 30-fold its Ki α2β2γ1, at least 3 oocytes. On the procedure:
Xenopus laevis oocytes at maturation stages V-VI were used for the expression of cloned mRNA encoding GABAA receptor subunits. Oocytes ready for RNA micro-injection were bought from Ecocyte, Castrop-Rauxel, Germany and stored in modified Barth's medium (composition in mM: NaCl 88, KCl 1, NaHCO3 2.4, HEPES 10, MgSO4 0.82, CaNO3 0.33, CaCl2 0.33, pH=7.5) at 20° C. until the experiment.
Oocytes were plated in 96-well plates for microinjection using the Roboinject automated instrument (MultiChannelSystems, Reutlingen, Germany). Approximately 50 nL of an aqueous solution containing the RNA transcripts for the subunits of the desired GABAA receptor subtype was injected into each oocyte. […] Oocytes were kept in modified Barth's medium (composition in mM: NaCl 88, KCl 1, NaHCO3 […], HEPES 10, MgSO4 0.82, CaNO3 0.33, CaCl2 0.33, pH=7.5) at 20° C. until the experiment.
Electrophysiological experiments were performed using the Roboocyte instrument (MultiChannelSystems, Reutlingen, Germany) on days 3 to 5 after the micro-injection of mRNA. During the experiment the oocytes were constantly superfused by a solution containing (in mM) NaCl 90, KCl 1, HEPES 5, MgCl2 1 CaCl2 1 (pH 7.4). Oocytes were impaled by two glass microelectrodes (resistance: 0.5-0.8 MΩ) which were filled with a solution containing KCl 1M+K-acetate 1.5 M and voltage-clamped to −80 mV. The recordings were performed at room temperature using the Roboocyte two-electrode voltage clamp system (Multichannelsystem). After an initial equilibration period of 1.5 min GABA was added for 1.5 min at a concentration evoking approximately 20% of a maximal current response (EC20). After another rest interval of 2.5 min GABA was again added evoking a response of similar amplitude and shape. […] Current traces were recorded at a digitization rate of 10 Hz during and shortly before and after the GABA application.
Each compound and concentration was tested on at least 3 oocytes. Different oocytes were used for different compound concentrations.
For the analysis, the digitized current traces of the first and second GABA response were superimposed and, if necessary, rescaled to equal maximal amplitudes. The ratio between the two responses during the time interval of test compound application was calculated point by point. The extremum of the resulting “ratio trace” was taken as the efficacy (“Fold increase”) of the compound expressed as “% modulation of GABA EC20” (100*(Fold increase−1)).

Regarding `C[C@@H]1N=C(c2ccccc2F)c2c(ccc(Br)c2Cl)-n2cnnc21` [Example 30, (4S)-8-bromo-7-chloro-6-(2-fluorophenyl)-4-methyl-4H-[1,2,4]triazolo[4,3-a][1,4]benzodiazepine], the “Efficacy (GABA)%” value is 57% and the “Fold increase h-GABA-A α2β2γ1 oocyte @ 30-fold Ki” value came to 1.57.

On to `OC1N=C(c2c(F)cccc2F)c2c(ccc(Br)c2Cl)-n2cnnc21` (centres unmarked) [Example 31, 8-bromo-7-chloro-6-(2,6-difluorophenyl)-4H-[1,2,4]triazolo[4,3-a][1,4]benzodiazepin-4-ol], for which the “Efficacy (GABA)%” value amounted to 74% and the “Fold increase h-GABA-A α2β2γ1 oocyte @ 30-fold Ki” value is 1.74.

With `C[C@@H]1N=C(c2ccccc2F)c2c(ccc(Br)c2Cl)-n2c(-c3cccnn3)nnc21` [Example 32, (4S)-8-bromo-7-chloro-6-(2-fluorophenyl)-4-methyl-1-pyridazin-3-yl-4H-[1,2,4]triazolo[4,3-a][1,4]benzodiazepine], the “Efficacy (GABA)%” value is recorded as 105% and the “Fold increase h-GABA-A α2β2γ1 oocyte @ 30-fold Ki” value came out at 2.05.

With `OC1N=C(c2ccccc2F)c2c(ccc(Br)c2Cl)-n2c(-c3cccnn3)nnc21` (centres unmarked) [Example 35, 8-bromo-7-chloro-6-(2-fluorophenyl)-1-pyridazin-3-yl-4H-[1,2,4]triazolo[4,3-a][1,4]benzodiazepin-4-ol], the “Efficacy (GABA)%” value was determined as 108% and the “Fold increase h-GABA-A α2β2γ1 oocyte @ 30-fold Ki” value was determined as 2.08.

For `C[C@@H]1N=C(c2c(F)cccc2F)c2c(ccc(Br)c2Cl)-n2cnnc21` [Example 51, (4S)-8-bromo-7-chloro-6-(2,6-difluorophenyl)-4-methyl-4H-[1,2,4]triazolo[4,3-a][1,4]benzodiazepine], the “Efficacy (GABA)%” value was 56% and the “Fold increase h-GABA-A α2β2γ1 oocyte @ 30-fold Ki” value is reported as 1.56.

Consider `C[C@@H]1N=C(c2c(F)cccc2F)c2c(ccc(Cl)c2Cl)-n2c(-c3ccncn3)nnc21` [Example 52, (4S)-7,8-dichloro-6-(2,6-difluorophenyl)-4-methyl-1-pyrimidin-4-yl-4H-[1,2,4]triazolo[4,3-a][1,4]benzodiazepine], for which the “Efficacy (GABA)%” value came to 100% and the “Fold increase h-GABA-A α2β2γ1 oocyte @ 30-fold Ki” value was found to be 2.00.

Regarding `C[C@@H]1N=C(c2c(F)cccc2F)c2c(ccc(Cl)c2Cl)-n2c(-c3cnn(C)c3)nnc21` [Example 53, (4S)-7,8-dichloro-6-(2,6-difluorophenyl)-4-methyl-1-(1-methylpyrazol-4-yl)-4H-[1,2,4]triazolo[4,3-a][1,4]benzodiazepine], the “Efficacy (GABA)%” value is recorded as 32% and the “Fold increase h-GABA-A α2β2γ1 oocyte @ 30-fold Ki” value was found to be 1.32.

Consider `C[C@@H]1N=C(c2c(F)cccc2F)c2c(ccc(Cl)c2Cl)-n2c(-c3cccnn3)nnc21` [Example 56, (4S)-7,8-dichloro-6-(2,6-difluorophenyl)-4-methyl-1-pyridazin-3-yl-4H-[1,2,4]triazolo[4,3-a][1,4]benzodiazepine], for which the “Efficacy (GABA)%” value is 78% and the “Fold increase h-GABA-A α2β2γ1 oocyte @ 30-fold Ki” value is listed as 1.78.

As to `C[C@@H]1N=C(c2ncccc2F)c2c(ccc(Cl)c2Cl)-n2c(-c3cccnn3)nnc21` [Example 63, (4S)-7,8-dichloro-6-(3-fluoro-2-pyridyl)-4-methyl-1-pyridazin-3-yl-4H-[1,2,4]triazolo[4,3-a][1,4]benzodiazepine], the “Efficacy (GABA)%” value is given as 891% and the “Fold increase h-GABA-A α2β2γ1 oocyte @ 30-fold Ki” value is recorded as 9.91.

Consider `C[C@@H]1N=C(c2c(F)cccc2F)c2c(ccc(Cl)c2Cl)-n2c1n[nH]c2=O` [Example 64, (4S)-7,8-dichloro-6-(2,6-difluorophenyl)-4-methyl-2,4-dihydro-[1,2,4]triazolo[4,3-a][1,4]benzodiazepin-1-one], for which the “Efficacy (GABA)%” value is listed as 74% and the “Fold increase h-GABA-A α2β2γ1 oocyte @ 30-fold Ki” value came out at 1.74.

Consider `C[C@@H]1N=C(c2ncccc2F)c2c(ccc(Cl)c2Cl)-n2c(-c3ccncn3)nnc21` [Example 66, (4S)-7,8-dichloro-6-(3-fluoro-2-pyridyl)-4-methyl-1-pyrimidin-4-yl-4H-[1,2,4]triazolo[4,3-a][1,4]benzodiazepine], for which the “Efficacy (GABA)%” value is reported as 143% and the “Fold increase h-GABA-A α2β2γ1 oocyte @ 30-fold Ki” value came out at 2.43.

For the compound `C[C@@H]1N=C(c2ncccc2F)c2c(ccc(Cl)c2Cl)-n2c(-c3cnn(C)c3)nnc21` [Example 67, (4S)-7,8-dichloro-6-(3-fluoro-2-pyridyl)-4-methyl-1-(1-methylpyrazol-4-yl)-4H-[1,2,4]triazolo[4,3-a][1,4]benzodiazepine], the “Efficacy (GABA)%” value worked out at 69% and the “Fold increase h-GABA-A α2β2γ1 oocyte @ 30-fold Ki” value is on record as 1.69.

With `C[C@@H]1N=C(c2ncccc2F)c2c(ccc(Cl)c2Cl)-n2c(C3CC3)nnc21` [Example 68, (4S)-7,8-dichloro-1-cyclopropyl-6-(3-fluoro-2-pyridyl)-4-methyl-4H-[1,2,4]triazolo[4,3-a][1,4]benzodiazepine], the “Efficacy (GABA)%” value was 109% and the “Fold increase h-GABA-A α2β2γ1 oocyte @ 30-fold Ki” value is reported as 2.09.

For the compound `C[C@@H]1N=C(c2c(F)cccc2F)c2c(ccc(Cl)c2Br)-n2c(-c3cccnn3)nnc21` [Example 73, (4S)-7-bromo-8-chloro-6-(2,6-difluorophenyl)-4-methyl-1-(pyridazin-3-yl)-4H-benzo[f][1,2,4]triazolo[4,3-a][1,4]diazepine], the “Efficacy (GABA)%” value is 105% and the “Fold increase h-GABA-A α2β2γ1 oocyte @ 30-fold Ki” value was 2.05.

On to `C[C@@H]1N=C(c2c(F)cccc2F)c2c(ccc(Cl)c2Br)-n2c(-c3ccncn3)nnc21` [Example 74, (4S)-7-bromo-8-chloro-6-(2,6-difluorophenyl)-4-methyl-1-pyrimidin-4-yl-4H-[1,2,4]triazolo[4,3-a][1,4]benzodiazepine], for which the “Efficacy (GABA)%” value was found to be 62% and the “Fold increase h-GABA-A α2β2γ1 oocyte @ 30-fold Ki” value was 1.62.

In the case of `Cc1nnc2n1-c1ccc(Br)c(Cl)c1C(c1c(F)cccc1F)=N[C@H]2C` [Example 75, (4S)-8-bromo-7-chloro-6-(2,6-difluorophenyl)-1,4-dimethyl-4H-[1,2,4]triazolo[4,3-a][1,4]benzodiazepine], the “Efficacy (GABA)%” value is 57% and the “Fold increase h-GABA-A α2β2γ1 oocyte @ 30-fold Ki” value is 1.57.

With `C[C@@H]1N=C(c2c(F)cccc2F)c2c(ccc(Cl)c2Br)-n2c(-c3cnn(C)c3)nnc21` [Example 76, (4S)-7-bromo-8-chloro-6-(2,6-difluorophenyl)-4-methyl-1-(1-methylpyrazol-4-yl)-4H-[1,2,4]triazolo[4,3-a][1,4]benzodiazepine], the “Efficacy (GABA)%” value is reported as 52% and the “Fold increase h-GABA-A α2β2γ1 oocyte @ 30-fold Ki” value was found to be 1.52.

Turning to `Cc1nnc2n1-c1ccc(Cl)c(Br)c1C(c1c(F)cccc1F)=N[C@H]2C` [Example 80, (4S)-7-bromo-8-chloro-6-(2,6-difluorophenyl)-1,4-dimethyl-4H-[1,2,4]triazolo[4,3-a][1,4]benzodiazepine], the “Efficacy (GABA)%” value worked out at 59% and the “Fold increase h-GABA-A α2β2γ1 oocyte @ 30-fold Ki” value came out at 1.59.

As to `C[C@@H]1N=C(c2c(F)cccc2F)c2c(ccc(Cl)c2Br)-n2c(-c3ccn(C)n3)nnc21` [Example 81, (4S)-7-bromo-8-chloro-6-(2,6-difluorophenyl)-4-methyl-1-(1-methylpyrazol-3-yl)-4H-[1,2,4]triazolo[4,3-a][1,4]benzodiazepine], the “Efficacy (GABA)%” value came to 46% and the “Fold increase h-GABA-A α2β2γ1 oocyte @ 30-fold Ki” value was determined as 1.46.

`Cc1nnc2n1-c1ccc(Cl)c(Cl)c1C(c1c(F)cccc1F)=N[C@H]2C` [Example 82, (4S)-7,8-dichloro-6-(2,6-difluorophenyl)-1,4-dimethyl-4H-[1,2,4]triazolo[4,3-a][1,4]benzodiazepine]: the “Efficacy (GABA)%” value was found to be 45% and the “Fold increase h-GABA-A α2β2γ1 oocyte @ 30-fold Ki” value was found to be 1.45.

On to `C[C@@H]1N=C(c2ncccc2F)c2c(ccc(Br)c2Cl)-n2c(C3CC3)nnc21` [Example 83, (4S)-8-bromo-7-chloro-1-cyclopropyl-6-(3-fluoro-2-pyridyl)-4-methyl-4H-[1,2,4]triazolo[4,3-a][1,4]benzodiazepine], for which the “Efficacy (GABA)%” value is on record as 102% and the “Fold increase h-GABA-A α2β2γ1 oocyte @ 30-fold Ki” value is given as 2.02.

For the compound `C[C@@H]1N=C(c2ncccc2F)c2c(ccc(Br)c2Cl)-n2cnnc21` [Example 84, (4S)-8-bromo-7-chloro-6-(3-fluoro-2-pyridyl)-4-methyl-4H-[1,2,4]triazolo[4,3-a][1,4]benzodiazepine], the “Efficacy (GABA)%” value came out at 203% and the “Fold increase h-GABA-A α2β2γ1 oocyte @ 30-fold Ki” value was determined as 3.03.

The values are drawn from US20240002393A1, “SUBSTITUTED BENZO[f][l ,2,4JTRIAZOL0[4,3-a][l ,4J[…] GABA A GAMMA! POSITIVE ALLOSTERIC MODULATORS” (Hoffmann-La Roche Inc., priority 2020, published 2024).
